Reference: PubChem BioAssay (NCI)
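In this assay, cells in 96-well plates receive the compound at five concentrations for 48 hours. Endpoints are linearly interpolated between the surrounding concentrations. GI50 = concentration required for 50% inhibition of growth. TGI: concentration producing complete growth inhibition.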

Columns and labels:
Experiment in all cases: NCI-60 cell line screen, 48 h
COLO 205 colon = tested on: COLO 205 colon
T-47D breast = tested on: T-47D breast
SK-MEL-2 melanoma = tested on: SK-MEL-2 melanoma
BT-549 breast = tested on: BT-549 breast
HL-60(TB) leukemia = tested on: HL-60(TB) leukemia
NCI-H460 lung = tested on: NCI-H460 lung
PC-3 prostate = tested on: PC-3 prostate
U251 CNS = tested on: U251 CNS
SK-MEL-28 melanoma = tested on: SK-MEL-28 melanoma
NCI-H23 lung = tested on: NCI-H23 lung
NCI/ADR-RES ovarian = tested on: NCI/ADR-RES ovarian
SK-OV-3 ovarian = tested on: SK-OV-3 ovarian
786-0 renal = tested on: 786-0 renal
MDA-MB-231 breast = tested on: MDA-MB-231 breast
OVCAR-4 ovarian = tested on: OVCAR-4 ovarian
HOP-92 NSCLC = tested on: HOP-92 NSCLC
SF-539 CNS = tested on: SF-539 CNS
NCI-H522 lung = tested on: NCI-H522 lung
HT29 colon = tested on: HT29 colon
UACC-62 melanoma = tested on: UACC-62 melanoma
HCT-116 colon = tested on: HCT-116 colon
SF-268 CNS = tested on: SF-268 CNS
ACHN renal = tested on: ACHN renal
RXF 393 renal = tested on: RXF 393 renal

CC(=O)/C=C/c1ccc(Nc2c3ccccc3nc3occ(Cl)c23)cc1
GI50 (COLO 205 colon): 4.46 µM
TGI (COLO 205 colon): 19.5 µM
GI50 (T-47D breast): 4.82 µM
TGI (T-47D breast): 76.3 µM
GI50 (SK-MEL-2 melanoma): 42.6 µM
TGI (SK-MEL-2 melanoma): > 100 µM
GI50 (BT-549 breast): 4.9 µM
TGI (BT-549 breast): 22.7 µM
GI50 (HL-60(TB) leukemia): 3.1 µM
TGI (HL-60(TB) leukemia): 8.56 µM
GI50 (NCI-H460 lung): 2.96 µM
TGI (NCI-H460 lung): 14.6 µM
GI50 (PC-3 prostate): 2.63 µM
TGI (PC-3 prostate): 18.8 µM
GI50 (U251 CNS): 2.33 µM
TGI (U251 CNS): 6.83 µM
GI50 (SK-MEL-28 melanoma): 15.1 µM
TGI (SK-MEL-28 melanoma): > 100 µM
GI50 (NCI-H23 lung): 3.1 µM
TGI (NCI-H23 lung): 13.2 µM
GI50 (NCI/ADR-RES ovarian): 2.56 µM
TGI (NCI/ADR-RES ovarian): 5.88 µM
GI50 (SK-OV-3 ovarian): 8.21 µM
TGI (SK-OV-3 ovarian): 65.6 µM
GI50 (786-0 renal): 3.17 µM
TGI (786-0 renal): 17.2 µM
GI50 (MDA-MB-231 breast): 2.63 µM
TGI (MDA-MB-231 breast): 9.06 µM
GI50 (OVCAR-4 ovarian): 4.35 µM
TGI (OVCAR-4 ovarian): 30.2 µM
GI50 (HOP-92 NSCLC): 4.51 µM
TGI (HOP-92 NSCLC): 29.4 µM
GI50 (SF-539 CNS): 4.52 µM
TGI (SF-539 CNS): 22.9 µM
GI50 (NCI-H522 lung): 3.43 µM
TGI (NCI-H522 lung): 16.1 µM
GI50 (HT29 colon): 2.58 µM
TGI (HT29 colon): > 100 µM
GI50 (UACC-62 melanoma): 1.66 µM
TGI (UACC-62 melanoma): 7.03 µM
GI50 (HCT-116 colon): 4.83 µM
TGI (HCT-116 colon): 17.6 µM
GI50 (SF-268 CNS): 3.16 µM
TGI (SF-268 CNS): 17.5 µM
GI50 (ACHN renal): 3.32 µM
TGI (ACHN renal): 12.5 µM
GI50 (RXF 393 renal): 0.497 µM
TGI (RXF 393 renal): 7.15 µM
